Experiment [1] has as its target T1, Human PDGFRβ, cytoplasmic domain (GST-PDGFRβ) (Homo sapiens, UniProt P09619).
T1 construct: made in house
As to the kind of experiment: Human PDGFRβ biochemical inhibition assay (off-chip Mobility Shift Assay). The essentials:
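GST-tagged cytoplasmic domain (aa 557-1106) from baculovirus was incubated 1 h at room temperature with compound, CSKtide, ATP at Km and Mg²⁺ in HEPES buffer, pH 7.5. Phosphorylated and unphosphorylated peptide were separated by off-chip mobility shift, and the product ratio P/(P+S) gave percent inhibition.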

Experiment [2] deals with T2, Human PDGFRα, cytoplasmic domain (GST-PDGFRα) (Homo sapiens, UniProt P16234).
T2 construct: made in house
T2 sequence (P16234 550-1089 T674I): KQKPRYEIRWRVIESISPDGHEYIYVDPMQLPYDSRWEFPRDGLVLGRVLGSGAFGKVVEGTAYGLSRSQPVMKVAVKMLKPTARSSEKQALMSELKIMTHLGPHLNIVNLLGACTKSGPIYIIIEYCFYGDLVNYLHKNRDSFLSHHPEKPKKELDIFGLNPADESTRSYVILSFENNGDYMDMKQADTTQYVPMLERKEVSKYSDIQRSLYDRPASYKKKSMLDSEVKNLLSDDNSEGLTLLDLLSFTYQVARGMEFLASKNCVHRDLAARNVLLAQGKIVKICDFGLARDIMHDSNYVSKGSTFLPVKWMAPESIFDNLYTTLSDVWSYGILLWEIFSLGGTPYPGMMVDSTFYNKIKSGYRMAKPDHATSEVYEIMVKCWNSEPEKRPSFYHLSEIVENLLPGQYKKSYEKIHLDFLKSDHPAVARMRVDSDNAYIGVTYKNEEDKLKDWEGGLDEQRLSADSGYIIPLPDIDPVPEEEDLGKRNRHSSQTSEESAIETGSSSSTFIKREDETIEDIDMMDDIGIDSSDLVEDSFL
As to the kind of experiment: Human PDGFRα biochemical inhibition assay (off-chip Mobility Shift Assay).

T1 sequence (P09619 with tags, fused parts or gaps): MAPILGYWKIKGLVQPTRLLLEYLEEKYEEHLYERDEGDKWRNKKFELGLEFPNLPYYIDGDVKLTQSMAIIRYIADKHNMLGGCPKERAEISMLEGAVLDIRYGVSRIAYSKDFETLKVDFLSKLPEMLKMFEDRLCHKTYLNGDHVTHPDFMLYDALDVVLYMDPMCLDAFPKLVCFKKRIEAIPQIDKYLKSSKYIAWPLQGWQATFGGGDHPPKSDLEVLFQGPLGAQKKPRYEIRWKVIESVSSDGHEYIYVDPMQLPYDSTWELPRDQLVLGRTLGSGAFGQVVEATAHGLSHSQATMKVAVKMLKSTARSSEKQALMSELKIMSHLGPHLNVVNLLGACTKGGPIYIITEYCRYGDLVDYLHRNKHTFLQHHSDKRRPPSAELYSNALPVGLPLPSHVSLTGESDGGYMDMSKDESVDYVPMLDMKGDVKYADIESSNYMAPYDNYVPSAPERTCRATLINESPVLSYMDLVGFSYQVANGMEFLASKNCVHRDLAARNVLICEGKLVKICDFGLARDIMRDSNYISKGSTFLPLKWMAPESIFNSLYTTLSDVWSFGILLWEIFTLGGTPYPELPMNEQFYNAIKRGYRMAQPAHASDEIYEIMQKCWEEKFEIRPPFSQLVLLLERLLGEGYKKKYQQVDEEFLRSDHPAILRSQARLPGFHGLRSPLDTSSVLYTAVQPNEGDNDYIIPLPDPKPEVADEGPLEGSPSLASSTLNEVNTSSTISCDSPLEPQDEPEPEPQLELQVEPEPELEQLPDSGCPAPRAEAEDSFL

As a reminder, the IC50 is the concentration needed to halve the response being measured. For `CCn1cc2ncc(N[C@@H](C)c3cc(NC(=O)Cc4ccc(C(C)(C)O)cn4)ccc3C)nc2n1` [Compound 705, (S)-N-(3-(1-((2-ethyl-2H-pyrazolo[3,4-b]pyrazin-6-yl)amino)ethyl)-4-methylphenyl)-2-(5-(2-hydroxypropan-2-yl)pyridin-2-yl)acetamide], the half-maximal inhibitory concentration (IC50) in experiment [1] and in experiment [2] was at least 1000 nM each time.
With `CCn1cc2ncc(N[C@@H](C)c3cccc(NC(=O)c4ccc(OC(F)F)c(Cl)c4)c3)nc2n1` [Compound 450, (S)-3-chloro-4-(difluoromethoxy)-N-(3-(1-((2-ethyl-2H-pyrazolo[3,4-b]pyrazin-6-yl)amino)ethyl)phenyl)benzamide], the IC50 in experiment [1] and in experiment [2] was under 300 nM each time.
Turning to `CCn1cc2ncc(N[C@@H](C)c3cccc(NC(=O)c4cnc5c(c4)CCCO5)c3)nc2n1` [Compound 56, (S)-N-(3-(1-((2-ethyl-2H-pyrazolo[3,4-b]pyrazin-6-yl)amino)ethyl)phenyl)-3,4-dihydro-2H-pyrano[2,3-b] pyridine-6-carboxamide], the IC50 in experiment [1] and in experiment [2] was under 300 nM in each case.
On to `Cc1cncc(C(=O)Nc2cccc([C@H](C)Nc3cnc4[nH]c(C5CC5)nc4c3)c2)c1` [Compound 601, (S)-N-(3-(1-((2-cyclopropyl-3H-imidazo[4,5-6]pyridin-6-yl)amino)ethyl)phenyl)-5-methylnicotinamide], for which the IC50 in experiment [1] and in experiment [2] was under 300 nM each time.
Turning to `Cc1cc(C(=O)Nc2cccc([C@H](C)Nc3cnc4cnn(C)c4n3)c2)cnc1C` [Compound 206, (S)-5,6-dimethyl-N-(3-(1-((1-methyl-1H-pyrazolo[3,4-b]pyrazin-6-yl)amino)ethyl)phenyl)nicotinamide], the concentration for half-maximal inhibition (IC50) in experiment [1] and in experiment [2] was under 300 nM each time.
As for `Cc1cc(C(=O)Nc2cccc([C@H](C)Nc3cnc4cnn(C)c4n3)c2)cnn1` [Compound 132, (S)-6-methyl-N-(3-(1-((1-methyl-1H-pyrazolo[3,4-b]pyrazin-6-yl)amino)ethyl)phenyl)pyridazine-4-carboxamide], the half-maximal inhibitory concentration (IC50) was at least 1000 nM in experiment [1] and under 300 nM in experiment [2].
For `CCn1cc2ncc(N[C@@H](C)c3cccc(NC(=O)c4ccc(CN5CCN(C)CC5)c(Cl)c4)c3)nc2n1` [Compound 417, (S)-3-chloro-N-(3-(1-((2-ethyl-2H-pyrazolo[3,4-b]pyrazin-6-yl)amino)ethyl)phenyl)-4-((4-methylpiperazin-1-yl)methyl) benzamide] the same measures were under 300 nM and under 300 nM.
With `CCn1cc2ncc(N[C@@H](C)c3cccc(NC(=O)c4cnc(NC5CC5)c(C)c4)c3)nc2n1` [Compound 352, (S)-6-(cyclopropylamino)-N-(3-(1-((2-ethyl-2H-pyrazolo[3,4-b]pyrazin-6-yl)amino)ethyl)phenyl)-5-methylnicotinamide], the IC50 is 300 to 1000 nM in experiment [1] and under 300 nM in experiment [2].
As to `Cc1cncc(C(=O)Nc2cccc([C@H](C)Nc3cnc4[nH]cc(-c5cncnc5)c4n3)c2)c1` [Compound 593, (S)-5-methyl-N-(3-(1-((7-(pyrimidin-5-yl)-5H-pyrrolo [2,3-b]pyrazin-2-yl)amino)ethyl)phenyl)nicotinamide], the IC50 in experiment [1] and in experiment [2] was under 300 nM in each case.
As for `CCn1cc2ncc(N[C@@H](C)c3cccc(NC(=O)c4ccc(C)c(F)c4)c3)nc2n1` [Compound 344, (S)-N-(3-(1-((2-ethyl-2H-pyrazolo[3,4-b]pyrazin-6-yl)amino)ethyl)phenyl)-3-fluoro-4-methylbenzamide], the IC50 in experiment [1] and in experiment [2] was under 300 nM each time.
With `CCn1cc2ncc(N[C@@H](C)c3cccc(NC(=O)Cc4cc(C)c(Cl)cn4)c3)nc2n1` [Compound 695, (S)-2-(5-chloro-4-methylpyridin-2-yl)-N-(3-(1-((2-ethyl-2H-pyrazolo[3,4-b]pyrazin-6-yl)amino)ethyl)phenyl)acetamide], the IC50 is 300 to 1000 nM in experiment [1] and under 300 nM in experiment [2].
For `CC(C)c1cc(C(=O)Nc2cccc([C@H](C)Nc3cnc4cnn(C)c4n3)c2)no1` [Compound 142, (S)-5-isopropyl-N-(3-(1-((1-methyl-1H-pyrazolo[3,4-b]pyrazin-6-yl)amino)ethyl)phenyl)isoxazole-3-carboxamide], in that order: under 300 nM and under 300 nM.
For `Cc1cc(C(=O)Nc2cccc([C@H](C)Nc3cnc4cnn(C)c4n3)c2)ccc1CN1CCSCC1` [Compound 237, (S)-3-methyl-N-(3-(1-((1-methyl-1H-pyrazolo[3,4-b]pyrazin-6-yl)amino)ethyl)phenyl)-4-(thiomorpholinomethyl) benzamide] the same measures were under 300 nM and under 300 nM.
For `COc1ccc(C(=O)Nc2cccc([C@H](C)Nc3cnc4cnn(C)c4n3)c2)cc1F` [Compound 189, (S)-3-fluoro-4-methoxy-N-(3-(1-((1-methyl-1H-pyrazolo[3,4-b]pyrazin-6-yl)amino)ethyl)phenyl)benzamide], in that order: under 300 nM and under 300 nM.
In the case of `CCn1cc2ncc(N[C@@H](C)c3cc(NC(=O)c4ccc(C(F)(F)F)nc4)ccc3C)nc2n1` [Compound 455, (S)-N-(3-(1-((2-ethyl-2H-pyrazolo[3,4-b]pyrazin-6-yl)amino)ethyl)-4-methylphenyl)-6-(trifluoromethyl)nicotinamide], the IC50 in experiment [1] and in experiment [2] was under 300 nM each time.
In the case of `COC(=O)c1ccc(C(=O)Nc2cccc([C@H](C)Nc3cnc4cnn(C)c4n3)c2)cc1Br` [Compound 197, methyl (S)-2-bromo-4-((3-(1-((1-methyl-1H-pyrazolo[3,4-b]pyrazin-6-yl)amino)ethyl)phenyl)carbamoyl)benzoate], the 50% inhibitory concentration (IC50) in experiment [1] and in experiment [2] was under 300 nM in each case.
On to `C[C@H](Nc1cnc2cnn(C)c2n1)c1cccc(NC(=O)c2cnc(C(F)F)s2)c1` [Compound 141, (S)-2-(difluoromethyl)-N-(3-(1-((1-methyl-1H-pyrazolo[3,4-b]pyrazin-6-yl)amino)ethyl)phenyl)thiazole-5-carboxamide], for which the IC50 in experiment [1] and in experiment [2] was under 300 nM in each case.
As for `CCc1ccc(CC(=O)Nc2cccc([C@H](C)Nc3cnc4cn(CC)nc4n3)c2)nc1` [Compound 712, (S)-N-(3-(1-((2-ethyl-2H-pyrazolo[3,4-b]pyrazin-6-yl)amino)ethyl)phenyl)-2-(5-ethylpyridin-2-yl)acetamide], the IC50 in experiment [1] was at least 1000 nM; in experiment [2], under 300 nM.
For `CCn1cc2ncc(N[C@@H](C)c3cccc(NC(=O)Cc4ccc5c(n4)CCCC5)c3)nc2n1` [Compound 723, (S)-N-(3-(1-((2-ethyl-2H-pyrazolo[3,4-b]pyrazin-6-yl)amino)ethyl)phenyl)-2-(5,6,7,8-tetrahydroquinolin-2-yl) acetamide], in that order: at least 1000 nM and under 300 nM.
For `CCn1cc2ncc(N[C@@H](C)c3cc(NC(=O)c4cc(F)c(CN5CCOCC5)c(Cl)c4)ccc3C)nc2n1` [Compound 520, (S)-3-chloro-N-(3-(1-((2-ethyl-2H-pyrazolo[3,4-b]pyrazin-6-yl)amino)ethyl)-4-methylphenyl)-5-fluoro-4-(morpholinomethyl) benzamide], in that order: under 300 nM and under 300 nM.
For `CCn1cc2ncc(N[C@@H](C)c3cccc(NC(=O)c4ccc(CN5CC[C@H](F)C5)c(C)c4)c3)nc2n1` [Compound 493, N-(3-((S)-1-((2-ethyl-2H-pyrazolo[3,4-b]pyrazin-6-yl)amino)ethyl)phenyl)-4-(((S)-3-fluoropyrrolidin-1-yl)methyl)-3-methylbenzamide] the same measures were under 300 nM and under 300 nM.
Regarding `Cc1ncc(C(=O)Nc2cccc([C@H](C)Nc3cnc4cnn(C)c4n3)c2)cc1C(F)(F)F` [Compound 124, (S)-6-methyl-N-(3-(1-((1-methyl-1H-pyrazolo[3,4-b]pyrazin-6-yl)amino)ethyl)phenyl)-5-(trifluoromethyl) nicotinamide], the half-inhibitory concentration (IC50) in experiment [1] and in experiment [2] was under 300 nM in each case.
On to `CCn1cc2ncc(N[C@@H](C)c3cccc(NC(=O)c4ccc(CN5CCCC5)c(Cl)c4)c3)nc2n1` [Compound 418, (S)-3-chloro-N-(3-(1-((2-ethyl-2H-pyrazolo[3,4-b]pyrazin-6-yl)amino)ethyl)phenyl)-4-(pyrrolidin-1-ylmethyl) benzamide], for which the IC50 in experiment [1] and in experiment [2] was under 300 nM in each case.
Take `CC(C)c1cc(C(=O)Nc2cccc([C@H](C)Nc3cnc4cnn(C)c4n3)c2)n[nH]1` [Compound 161, (S)-5-isopropyl-N-(3-(1-((1-methyl-1H-pyrazolo[3,4-b]pyrazin-6-yl)amino)ethyl)phenyl)-1H-pyrazole-3-carboxamide]: the IC50 in experiment [1] and in experiment [2] was under 300 nM throughout.
As to `CCn1cc2ncc(N[C@@H](C)c3cc(NC(=O)c4cnc(C5CC5)c(C)c4)ccc3F)nc2n1` [Compound 322, (S)-6-cyclopropyl-N-(3-(1-((2-ethyl-2H-pyrazolo[3,4-b]pyrazin-6-yl)amino)ethyl)-4-fluorophenyl)-5-methylnicotinamide], the IC50 in experiment [1] and in experiment [2] was under 300 nM each time.
Consider `CCn1cc2ncc(N[C@@H](C)c3cccc(NC(=O)Cc4ccc(C)cn4)c3)nc2n1` [Compound 25, (S)—N-(3-(1-((2-ethyl-2H-pyrazolo[3,4-b]pyrazin-6-yl)amino)ethyl)phenyl)-2-(5-methylpyridin-2-yl)acetamide], for which the half-inhibitory concentration (IC50) in experiment [1] was at least 1000 nM; in experiment [2] it was under 300 nM.
For `C[C@H](Nc1cnc2[nH]cc(-c3cnn(C)c3)c2n1)c1cccc(NC(=O)c2cnc(C(F)(F)F)s2)c1` [Compound 582, (S)-N-(3-(1-((7-(1-methyl-1H-pyrazol-4-yl)-5H-pyrrolo[2,3-b]pyrazin-2-yl)amino)ethyl)phenyl)-2-(trifluoromethyl) thiazole-5-carboxamide], in that order: 300 to 1000 nM and 300 to 1000 nM.
